The target of experiment [1] is T1, HLA-A*02:01 (Homo sapiens, UniProt P04439, D140Y/D185E/D98H/E176V/E277Q/G131W/G231S/I119V/I121R/I166T/I218V/L300P/L318F/N151K/N90K/P208A/P217A/Q86G/Q94H/R138H/R169H/T345S). Type of experiment: binding. Conditions: percent relative the binding of positive control peptide […]; plate-bound monomer 0.5 µg/ml; duplicated experiments; positive binder >40%.
Experiment [2] has as its target T2, HLA-A*24:02 (Homo sapiens, UniProt P04439, D101N/D140Y/D185E/E176V/E190D/F33S/G103R/G107R/I119L/I121M/I306V/K335N/L105A/L180Q/L300P/N151K/N90K/Q86E/Q94H/R106L/R138H/R89G/T104I/T345S/V100E/W191G/Y123F). Type of experiment: binding. The conditions noted are these: percent relative the binding of positive control peptide […]; duplicated experiments; positive binder >40%.

In experiment [3] the target is T3, HLA-A*30:01 (Homo sapiens, UniProt P04439, D140H/D185E/E176W/F33S/G80R/H175R/K168Q/R138E/R41S). It counts as binding. Conditions: percent relative the binding of positive control peptide […]; duplicated experiments; positive binder >40%.
For experiment [4], the target named is T3, HLA-A*30:01. In words: affinity assay (ED50). Type of experiment: binding. Conditions: peptide titrated 10−4 to 10−9 M.
The target of experiment [5] is T3, HLA-A*30:01. In words: off-rate assay (t1/2). It counts as binding. The conditions noted are these: time points 0-8 h.
The target in experiment [6] is T4, HLA-A*30:02 (Homo sapiens, UniProt P04439, D101N/D140H/D185E/E176R/F33S/G80R/H175R/K168Q/Q94H/R138E/R41S/V100E). Type of experiment: binding. Conditions: percent relative the binding of positive control peptide […]; duplicated experiments; positive binder >40%.
The target of experiment [7] is T4, HLA-A*30:02. Type of experiment: binding.
In experiment [8] the target is T4, HLA-A*30:02. Type of experiment: binding. Conditions: time points 0-8 h.
Experiment [9] deals with T5, HLA-A*68:01 (Homo sapiens, UniProt P04439, A269V/D185E/E176V/E277Q/E87N/F33Y/G231S/I121M/I166T/I218V/L180W/L300P/L318F/N151K/P208A/P217A/Q86R/R169H/T345S). Type of experiment: binding. Conditions: duplicated experiments, positive binder >40%.
For the next experiment, the target named is HLA-B*07:02 (Homo sapiens, UniProt P01889). It counts as binding. The conditions noted are these: percent relative the binding of positive control peptide […]; duplicated experiments; positive binder >40%.
The target of the next experiment is HLA-B*58:01 (Homo sapiens, UniProt P01889, A329T/C349S/D201E/D98Y/E176V/E187L/E204Q/E69T/G107R/I218V/I90N/K202T/L105A/L119I/N104I/N87E/Q89R/Q94S/R106L/R155S/R180L/R86G/S101N/S121R/S35A/S48A/T118I/V127L/V306I/V36M/Y140S/Y91M). It counts as binding. The conditions noted are these: percent relative the binding of positive control peptide […]; duplicated experiments; positive binder >40%.

The next experiment deals with HLA-C*07:01 (Homo sapiens, UniProt P10321, K90N/S123Y). Type of experiment: binding. The conditions noted are these: percent relative the binding of positive control peptide […]; duplicated experiments; positive binder >40%.
Experiment [10] concerns the target T1, HLA-A*02:01. Conditions: percent relative the binding of a positive control peptide, cited from earlier work.
Experiment [11] has as its target T1, HLA-A*02:01. The conditions noted are these: cited from earlier work.
Experiment [12] has as its target T1, HLA-A*02:01. Conditions: cited from earlier work. The source holds these as a separate data set.
The target of experiment [13] is T2, HLA-A*24:02. The conditions noted are these: percent relative the binding of a positive control peptide, cited from earlier work.
The target in experiment [14] is T2, HLA-A*24:02. The conditions noted are these: cited from earlier work.
Experiment [15] deals with T2, HLA-A*24:02. Conditions: cited from earlier work. This is another data set of the same source.
Experiment [16] deals with T4, HLA-A*30:02. The conditions noted are these: percent relative the binding of a positive control peptide, cited from earlier work.
The target of experiment [17] is T4, HLA-A*30:02. Conditions: cited from earlier work.
For experiment [18], the target named is T4, HLA-A*30:02. Conditions: cited from earlier work. This is another data set of the same source.
Experiment [19] deals with T5, HLA-A*68:01. It counts as binding.
Experiment [20] has as its target T5, HLA-A*68:01. It counts as binding. The conditions noted are these: time points 0-8 h.
Setting [21] is: percent relative the binding of positive control peptide […].

Read-outs that look alike come from different tables or passages of the source. Marks after values point to notes of the source that are not given here.

As to KLVANNT RL, the “Bind A*02:01” value on HLA-A*02:01 [1] was 81%. Further, the “Bind A*24:02” value at HLA-A*24:02 [2] was determined as 73%. At HLA-A*30:01 [3], the “Bind A*30:01” value was 60%. Also, the “Aff A*30:01 (ED50)” value at HLA-A*30:01 [4] was found to be 2E -08 M. In addition, on HLA-A*30:01 [5], the “O-rate A*30:01 (t1/2)” value was determined as 0.7 h. The “Bind A*30:02” value at HLA-A*30:02 [6] is given as 167%. For the same substance, the “Aff A*30:02 (ED50)” value on HLA-A*30:02 [7] stood at 1E -07 M. Further, on HLA-A*30:02 [8], the “O-rate A*30:02 (t1/2)” value came to 2.2 h. Moreover, the “Bind A*68:01” value at HLA-A*68:01 [9] (setting [21]) came out at 18%. Also, the “Bind B*07:02” value at HLA-B*07:02 was determined as 43%. Also, on HLA-B*58:01, the “Bind B*58:01” value is listed as 40%. Moreover, the “Bind C*07:01” value on HLA-C*07:01 is on record as 13%.

For the substance AMLGHAGDM [Rv0288_10–18wt], at HLA-A*02:01 [10] (wild-type epitopes marked *), the “Bind A*02:01” value is 46* percent. Further, the “Aff A*02:01 (ED50)” value on HLA-A*02:01 [11] (wild-type epitopes marked *) is 6000 nM. For the same substance, the “O-rate A*02:01 (t1/2)” value on HLA-A*02:01 [12] (wild-type epitopes marked *) was 1.7 h. At HLA-A*24:02 [13] (wild-type epitopes marked *), the “Bind A*24:02” value is recorded as 25* percent. At HLA-A*24:02 [14] (wild-type epitopes marked *), the “Aff A*24:02 (ED50)” value is 100000 nM. In addition, the “O-rate A*24:02 (t1/2)” value at HLA-A*24:02 [15] (wild-type epitopes marked *) is 3.1 h. Also, the “Bind A*30:02” value at HLA-A*30:02 [16] (wild-type epitopes marked **) is recorded as 97** percent. For the same substance, on HLA-A*30:02 [17] (wild-type epitopes marked **), the “Aff A*30:02 (ED50)” value was 50 nM. The “O-rate A*30:02 (t1/2)” value on HLA-A*30:02 [18] (wild-type epitopes marked **) was 1.2 h.

As for GYAGTLQSL [Rv0288_20–28wt], on HLA-A*24:02 [13] ([…]), the “Bind A*24:02” value is on record as 76* percent. Besides, the “Aff A*24:02 (ED50)” value at HLA-A*24:02 [14] is 300 nM. Besides, the “O-rate A*24:02 (t1/2)” value at HLA-A*24:02 [15] is on record as 3.7 h.

Consider NFVRSSNLK, for which the “Bind A*02:01” value on HLA-A*02:01 [1] came out at 3%. Further, on HLA-A*24:02 [2], the “Bind A*24:02” value was determined as 0%. In addition, the “Bind A*30:01” value at HLA-A*30:01 [3] is recorded as 101%. Besides, at HLA-A*30:01 [4], the “Aff A*30:01 (ED50)” value worked out at 9E -07 M. Besides, the “O-rate A*30:01 (t1/2)” value on HLA-A*30:01 [5] stood at 0.4 h. For the same substance, the “Bind A*30:02” value at HLA-A*30:02 [6] came to 0%. Moreover, on HLA-A*68:01 [9] (setting [21]), the “Bind A*68:01” value is 84%. In addition, on HLA-A*68:01 [19], the “Aff A*68:01 (ED50)” value is 3E -06 M. For the same substance, the “O-rate A*68:01 (t1/2)” value on HLA-A*68:01 [20] is 0.2 h. Besides, the “Bind B*07:02” value at HLA-B*07:02 stood at 0%. In addition, at HLA-B*58:01, the “Bind B*58:01” value was found to be 10%. Moreover, on HLA-C*07:01, the “Bind C*07:01” value was found to be 0%.

Regarding TLQSLGAEI [Rv0288_24–32wt], the “Bind A*02:01” value on HLA-A*02:01 [10] (wild-type epitopes marked *) is 46* percent. At HLA-A*02:01 [11] (wild-type epitopes marked *), the “Aff A*02:01 (ED50)” value is 3000 nM. Further, the “O-rate A*02:01 (t1/2)” value on HLA-A*02:01 [12] (wild-type epitopes marked *) is 1.7 h. At HLA-A*24:02 [13] (wild-type epitopes marked *), the “Bind A*24:02” value is 16* percent. Besides, the “Aff A*24:02 (ED50)” value at HLA-A*24:02 [14] (wild-type epitopes marked *) was 90 nM. Also, at HLA-A*24:02 [15] (wild-type epitopes marked *), the “O-rate A*24:02 (t1/2)” value is reported as 39.8 h.

Consider HAMSSTHEA [Rv0288_70–78], for which, at HLA-A*68:01 [9] (setting [21]), the “Bind A*68:01” value worked out at 77%. For the same substance, the “Aff A*68:01 (ED50)” value at HLA-A*68:01 [19] is 6e-06 M. The “O-rate A*68:01 (t1/2)” value on HLA-A*68:01 [20] stood at 0.5 h. Further, the “Bind B*58:01” value on HLA-B*58:01 worked out at 16%. Further, the “Bind C*07:01” value at HLA-C*07:01 was determined as 6%. At HLA-A*02:01 [10] ([…]), the “Bind A*02:01” value is 43* percent. On HLA-A*02:01 [11], the “Aff A*02:01 (ED50)” value was 6000 nM. The “O-rate A*02:01 (t1/2)” value at HLA-A*02:01 [12] is 2.5 h. The “Bind A*30:02” value on HLA-A*30:02 [16] ([…]) is listed as 88** percent. In addition, the “Aff A*30:02 (ED50)” value at HLA-A*30:02 [17] is 300 nM. Moreover, the “O-rate A*30:02 (t1/2)” value on HLA-A*30:02 [18] is 0.6 h.

Regarding DLVRAYHAM [Rv0288_64–72wt], on HLA-A*68:01 [9] (percent relative the binding of positive control peptide KTGGPIYKR), the “Bind A*68:01” value worked out at 34%. Besides, at HLA-A*68:01 [19] (peptide titrated 10−4 to 10−9 M), the “Aff A*68:01 (ED50)” value is 0.0004 M. In addition, on HLA-A*68:01 [20], the “O-rate A*68:01 (t1/2)” value was found to be 3.3 h. Further, the “Bind A*24:02” value on HLA-A*24:02 [13] (wild-type epitopes marked *) was 31* percent. In addition, the “Aff A*24:02 (ED50)” value at HLA-A*24:02 [14] (wild-type epitopes marked *) was 2000 nM. In addition, the “O-rate A*24:02 (t1/2)” value at HLA-A*24:02 [15] (wild-type epitopes marked *) is reported as 2.9 h.

For MYNYPAMLG [Rv0288_5–13wt], at HLA-A*24:02 [13] (wild-type epitopes marked *), the “Bind A*24:02” value was 72* percent. The “Aff A*24:02 (ED50)” value at HLA-A*24:02 [14] (wild-type epitopes marked *) was 600 nM. Further, on HLA-A*24:02 [15] (wild-type epitopes marked *), the “O-rate A*24:02 (t1/2)” value is given as 1.4 h. Besides, the “Bind A*30:02” value on HLA-A*30:02 [16] (wild-type epitopes marked **) is recorded as 45** percent. Further, the “Aff A*30:02 (ED50)” value on HLA-A*30:02 [17] (wild-type epitopes marked **) was 7000 nM. Besides, the “O-rate A*30:02 (t1/2)” value at HLA-A*30:02 [18] (wild-type epitopes marked **) is recorded as 0.6 h.

The values above are taken from publication PMC3608651, “A Broad Profile of Co-Dominant Epitopes Shapes the Peripheral Mycobacterium tuberculosis Specific CD8+ T-Cell Immune Response in South African Patients with Active Tuberculosis” (PLoS ONE, 2013).
